# Key:
# [1] = system: MCF-7 tumor cells; experiment: 13C-OMPD in cell culture medium with MCF-7 tumor cells immobilized in alginate beads (extracellular pH); type: cell-based; settings: ca. 6 mM fully-labeled 13C-OMPD, ca. 10 Mio. MCF-7 cells, 10 hours
# Procedure: Ten ^13C-spectra (proton decoupled) of ca. 6 mM fully-labeled ^13C-OMPD dissolved in cell culture medium with ca. 10 Mio. MCF-7 tumor cells immobilized in alginate beads were acquired during a total time of 10 hours within every hour.
# The pH sensitive OMPD-peaks 1, 5 and 6 of zymonic acid were also observed in ^13C-NMR spectra of ^13C-OMPD dissolved in cell culture medium with MCF-7 tumor cells immobilized in alginate beads.
# [2] = Stability in aqueous solution; type: physicochemical
# Procedure: An exemplary ^13C spectrum (left column) and ^1H spectrum (right column) of zymonic acid produced from [1-^13C]-pyruvic acid. The relevant peaks 1 to 5, which shift in dependency of the pH value of the sample, are marked. The proton spectra show a buffered solution of zymonic acid in water and D2O, once measured right after preparation of the solution (top right) and 24 h later (bottom right).
# The assignment of the NMR-peaks of zymonic acid was done using NMR prediction software (ChemDraw®) and standard 1D- and 2D-NMR-spectroscopy (see FIG. 5). […] The relevant peaks 1 to 5, which shift in dependency of the pH value of the sample, are marked. […] The proton spectra show a buffered solution of zymonic acid in water and D2O, once measured right after preparation of the solution (top right of FIG. 5) and 24 h later (bottom right of FIG. 5).
# [3] = system: HeLa cells; experiment: MTT assay cell viability (cytotoxicity test); type: cell-based; settings: 0.4 to 50 mM, 24 hours, up to tested concentration of 50 mM, ZA 100% pure, OMPD 80% OMPD/20% ZA
# Procedure: MTT assay with HeLa cells for testing cell viability after exposure to (A) OMPD and (B) zymonic acid (ZA) (0.4 to 50 mM) for 24 hours.
# (12C, ZA: 100% pure; OMPD: 80% OMPD, 20% ZA).
# Purified zymonic acid and OMPD were tested in a MTT assay with HeLa cells for testing cell viability after exposure to each substance at concentrations of 0.4 to 50 mM for 24 hours. After 24 hours incubation time, both substances are not cytotoxic up to the tested concentration of 50 mM.
# [4] = system: rats; experiment: Toxicity tests in rats; type: in vivo
# Procedure: Toxicity tests with a volume of 5 mL/kg at an injection rate of 0.2 mL/s for three different concentrations (20 mM (A), 40 mM (B), 80 mM (C)). Injection solution contained 80 mM Tris buffer solution, titrated with 1M NaOH to pH 7.4.
# 20 mM, 40 mM, and 80 mM zymonic acid were injected into 3 rats within one week with 1 day break in between each injection (see FIG. 14).
# Blood pressure, heart rate, blood oxygenation and animal temperature were monitored 10 minutes before and after the injection.
# [5] = system: rat bladder; experiment: In vivo pH determination in rat bladder with copolarized zymonic acid and urea; settings: injection into rat bladder via catheter, 10 mm slice
# Source text: FIG. 19. Copolarization of zymonic acid and urea, injection into the rat bladder via a catheter.
# A 10 mm slice covering the bladder volume was chosen.
# 6 injections of copolarized zymonic acid in healthy rats via a catheter directly into the bladder followed by pH-imaging and pH-control of the urine before an after injection by pH-electrode (see FIG. 19).
# [6] = cited from earlier work
SMILES,metabolism within tumor cells [1],stability in aqueous solutions [2],"cytotoxicity (cell viability, MTT) [3]","behaviour of the animals ([4]; 20, 40 and 80 mM injections)","survival after injections ([4]; 20, 40 and 80 mM, 5 mL/kg, 3 rats, injections within one week)","health problems ([4]; 20, 40 and 80 mM, even after 3 days post last injection)","decomposition in buffered solution ([2]; buffered solution in water and D2O, 24 hours, also cites Montgomery et al., 1956)",agreement of NMR-measured pH with electrode pH [5],pKa of the enolic group [6]
"C/C(=C/C(=O)C(=O)O)C(=O)O [OMPD, (Z)-4-methyl-2-oxopent-3-enedioic acid]",not metabolized within tumor cells,stable in aqueous solutions,not cytotoxic,,,,,,
"CC1(C(=O)O)C=C(O)C(=O)O1 (stereo not shown) [zymonic acid, 4-hydroxy-2-methyl-5-oxo-2,5-dihydrofuran-2-carboxylic acid]",,,not cytotoxic,No unusual behaviour,survived all injections,did not show health problems,slowly decomposed into parapyruvate within a period of 24 hours,Electrode pH measurements confirm the pH values measured by NMR spectroscopy,6.95
